Source: patent US20260240844A1, “INHIBITORS OF CHD1L AND USES THEREOF” (The Regents of the University of Colorado, a body corporate, priority 2023, published 2026)
Like-named read-outs stand apart in the source and are kept apart here.

Legend:
Colo678 cells = assay: Colo678 cell viability, combination with chemotherapy; format: cell-based; conditions: for IC50: Homo sapiens, COLO-678, Colo678 cells, read-out: IC50 5-FU
SW620 tumor organoids = assay: cells; conditions: Homo sapiens, SW-620, 72 h, read-out: IC50 5FU, SW620 tumor organoids, 72 h
[1] = test system: MDA-MB-231 tumor organoids; assay: Tumor organoid cytotoxicity, MDA-MB-231; format: cell-based; conditions: for IC50: Homo sapiens
Method: (§1) Tumor organoid culture—Cell lines were cultured as tumor organoids by seeding 2,000 to 5,000 cells/well into uncoated 96 well U-bottom Ultra Low Attachment Microplates (Corning) using their corresponding medium. Cell aggregation was then promoted by centrifugation of the plates for 15 min at 1,000 rpm followed by the addition of Matrigel (Corning) to a 2-5% final concentration. Tumor organoids were maintained under standard cell culture conditions for 72 h prior to drug treatment.
(§2) Organoids were then transferred to a white solid bottom 96 well plate and incubated with an equal volume of CellTiter Glo 3D reagent (Promega) for 45 min on a shaker at 400 rpm. Luminescence was recorded using the EnVision plate reader (PerkinElmer) and values normalized to the controls using GraphPad Prism.

SW948 tumor organoids = assay: cells
Method: ATM is an important protein involved in the initial stages of the DNA damage response. […] ATM mutations are important markers being developed to identify metastatic CRC (mCRC) patients that may be sensitive to DNA damaging chemotherapy.
Synergy was assessed using the Bliss model.

MiaPaca2 cells = assay: MiaPaca2 cell viability, combination with chemotherapy; format: cell-based; conditions: for IC50: Homo sapiens, MIA PaCa-2, MiaPaca2 cells, read-out: IC50 5-FU; for calculated mean synergy score: MiaPaca2 cells
Text: The cell viability assays and Bliss synergy analyses are as described above in Examples 1-9 and 11-12.

HCC1937 tumor organoids = assay: Tumor organoid cytotoxicity, HCC1937; format: cell-based; conditions: Homo sapiens; HCC1937 (BRCA1 mutant HR-deficient); read-out: IC50, tumor organoid viability, single agent
Method: as §1, §2

CHD1L = target: T1, CHD1L (Homo sapiens, UniProt Q86WJ1); assay: CHD1L trapping (in situ subcellular fractionation, immunofluorescence); format: cell-based; conditions: single agent, SUM149PT + 0.01% MMS 4 h, BC and CRC cells
T1 sequence (Q86WJ1 1-897): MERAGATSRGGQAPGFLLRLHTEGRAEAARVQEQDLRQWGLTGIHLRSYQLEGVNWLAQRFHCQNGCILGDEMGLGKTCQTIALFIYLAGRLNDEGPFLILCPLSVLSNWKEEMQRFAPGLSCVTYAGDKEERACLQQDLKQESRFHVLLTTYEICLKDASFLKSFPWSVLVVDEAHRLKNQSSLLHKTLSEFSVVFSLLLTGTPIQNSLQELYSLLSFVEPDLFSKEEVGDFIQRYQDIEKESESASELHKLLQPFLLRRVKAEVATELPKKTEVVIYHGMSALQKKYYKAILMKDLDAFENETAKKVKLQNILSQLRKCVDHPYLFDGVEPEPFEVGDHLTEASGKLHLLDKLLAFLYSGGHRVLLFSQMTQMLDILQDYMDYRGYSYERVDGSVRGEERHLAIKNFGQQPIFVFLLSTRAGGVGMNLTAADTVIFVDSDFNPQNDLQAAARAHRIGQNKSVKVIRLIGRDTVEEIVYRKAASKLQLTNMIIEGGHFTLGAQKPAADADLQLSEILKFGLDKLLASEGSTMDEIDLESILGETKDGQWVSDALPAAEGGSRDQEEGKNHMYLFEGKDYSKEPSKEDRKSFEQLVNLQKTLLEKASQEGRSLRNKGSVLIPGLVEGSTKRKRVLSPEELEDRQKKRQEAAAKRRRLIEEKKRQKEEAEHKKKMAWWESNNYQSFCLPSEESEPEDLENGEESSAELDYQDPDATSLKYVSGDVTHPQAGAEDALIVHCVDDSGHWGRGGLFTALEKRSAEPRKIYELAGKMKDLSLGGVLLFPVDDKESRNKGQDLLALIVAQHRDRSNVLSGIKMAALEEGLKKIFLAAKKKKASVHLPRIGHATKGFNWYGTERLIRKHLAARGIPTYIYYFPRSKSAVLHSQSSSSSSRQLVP
Text: Other studies on the role of CHD1L used cell lines with knockdown or knockouts of the gene encoding for CHD1L and have never been able to study the result of its enzymatic inhibition.

[2] = SW948 tumor organoids, combined with 5FU
[3] = SW948 tumor organoids, combined with SN38

Structure (SMILES): O=c1[nH]cc(F)c(=O)[nH]1 [Compound 5-FU, 5-fluorouracil]
- IC50 (Colo678 cells; Compound 6.11 0 μM): 3430 µM
- IC50 (Colo678 cells; Compound 6.11 3 μM): 717 µM
- IC50 (Colo678 cells; Compound 6.11 3.25 μM): 99.4 µM
- IC50 (Colo678 cells; Compound 6.11 3.5 μM): 58.5 µM
- IC50 (Colo678 cells; Compound 12 0 μM): 75100 µM
- IC50 (Colo678 cells; Compound 12 1 μM): 549 µM
- IC50 (Colo678 cells; Compound 12 1.5 μM): 392 µM
- IC50 (Colo678 cells; Compound 12 2 μM): 205 µM
- IC50 (Colo678 cells; Compound 13 0 μM): 7520 µM
- IC50 (Colo678 cells; Compound 13 3.5 μM): 544 µM
- IC50 (Colo678 cells; Compound 13 3.75 μM): 432 µM
- IC50 (Colo678 cells; Compound 13 4 μM): 246 µM
- IC50 (Colo678 cells; Compound 14 2.5 μM): 149 µM
- IC50 (Colo678 cells; Compound 14 2.75 μM): 74.7 µM
- IC50 (Colo678 cells; Compound 14 3 μM): 50.4 µM
- IC50 (Colo678 cells; Compound 20 0 μM): 14800 µM
- IC50 (Colo678 cells; Compound 20 3.5 μM): 170 µM
- IC50 (Colo678 cells; Compound 20 4 μM): 60 µM
- IC50 (Colo678 cells; Compound 20 4.5 μM): 34.5 µM
- IC50 (SW620 tumor organoids; 5FU alone): > 200 µM
- IC50 (SW620 tumor organoids; + Compound 6.11 2.75 μM): 2.88 µM
- IC50 5-FU (μM) in MDA-MB-231 ([1]; Compound 13 0 μM): Resistant
- IC50 ([1]; MDA-MB-231, Compound 13 2 μM, read-out: IC50 5-FU (μM) in MDA-MB-231): 23.5 µM
- IC50 ([1]; MDA-MB-231, Compound 13 2.25 μM, read-out: IC50 5-FU (μM) in MDA-MB-231): 9.1 µM
- IC50 ([1]; MDA-MB-231, Compound 13 2.5 μM, read-out: IC50 5-FU (μM) in MDA-MB-231): 4.6 µM
- IC50 (SW948 tumor organoids; Homo sapiens, SW948, read-out: IC50 of chemotherapy alone): 302 µM
- increase in potency of the chemotherapy (SW948 tumor organoids; SW948 tumor organoids, combined with Compound 6): ~300 fold
- IC50 (MiaPaca2 cells; Compound 6.11 0 μM): 238 µM
- IC50 (MiaPaca2 cells; Compound 6.11 4 μM): 74.4 µM
- IC50 (MiaPaca2 cells; Compound 6.11 4.25 μM): 68.7 µM
- IC50 (MiaPaca2 cells; Compound 6.11 4.5 μM): 38.3 µM
- IC50 (MiaPaca2 cells; Compound 7 0 μM): 68.2 µM
- IC50 (MiaPaca2 cells; Compound 7 7 μM): 61.8 µM
- IC50 (MiaPaca2 cells; Compound 7 8 μM): 56.7 µM
- IC50 (MiaPaca2 cells; Compound 7 9 μM): 46.7 µM
- IC50 (MiaPaca2 cells; Compound 8 0 μM): 55.6 µM
- IC50 (MiaPaca2 cells; Compound 8 2 μM): 66.2 µM
- IC50 (MiaPaca2 cells; Compound 8 2.25 μM): 60.4 µM
- IC50 (MiaPaca2 cells; Compound 8 2.5 μM): 53.8 µM
- IC50 (MiaPaca2 cells; Compound 12 0 μM): 69.7 µM
- IC50 (MiaPaca2 cells; Compound 12 3.75 μM): 32 µM
- IC50 (MiaPaca2 cells; Compound 12 4 μM): 16.3 µM
- IC50 (MiaPaca2 cells; Compound 12 4.25 μM): 15.9 µM
- IC50 (MiaPaca2 cells; Compound 13 0 μM): 57.2 µM
- IC50 (MiaPaca2 cells; Compound 13 5 μM): 60.9 µM
- IC50 (MiaPaca2 cells; Compound 13 6 μM): 58.5 µM
- IC50 (MiaPaca2 cells; Compound 13 […]): 50.7 µM

Structure (SMILES): Cc1cc(Nc2ccc(NC(=O)Cc3cc(Br)cs3)cc2)nc(N2CCCC2)n1 [Compound 6.11, 2-(4-bromothiophen-2-yl)-N-(4-((6-methyl-2-(pyrrolidin-1-yl)pyrimidin-4-yl)amino)phenyl)acetamide]
- calculated mean synergy score (Colo678 cells; Colo678 cells, 72 h, combined with SN-38): about 41
- IC50 ([1]; MDA-MB-231, MDA-MB-231 (BRCA wildtype HR-proficient), read-out: IC50, tumor organoid viability, single agent): ~3.3 µM
- IC50 (HCC1937 tumor organoids): ~2.8 µM
- Mean Synergy Score (SW948 tumor organoids; [2]): ~ 72
- maximum synergy score (SW948 tumor organoids; [2]): ~82
- Mean Synergy Score (SW948 tumor organoids; [3]): ~ 74
- maximum synergy score (SW948 tumor organoids; [3]): ~100
- calculated mean synergy score (MiaPaca2 cells; combined with 5-FU): about 42
- calculated mean synergy score (MiaPaca2 cells; combined with SN-38): about 29

Structure (SMILES): COc1cccc2c1C(=O)c1c(O)c3c(c(O)c1C2=O)C[C@@](O)(C(=O)CO)C[C@@H]3O[C@H]1C[C@H](N)[C@H](O)[C@H](C)O1 [doxorubicin]
- IC50 ([1]; MDA-MB-231, Compound 13 0 μM, read-out: IC50 doxorubicin (nM) in MDA-MB-231): 0.346 µM
- IC50 ([1]; MDA-MB-231, Compound 13 2 μM, read-out: IC50 doxorubicin (nM) in MDA-MB-231): 0.0922 µM
- IC50 ([1]; MDA-MB-231, Compound 13 2.25 μM, read-out: IC50 doxorubicin (nM) in MDA-MB-231): 0.0815 µM
- IC50 ([1]; MDA-MB-231, Compound 13 2.5 μM, read-out: IC50 doxorubicin (nM) in MDA-MB-231): 0.0202 µM
- CHD1L trapping onto chromatin/nucleosomes (CHD1L): do not trap CHD1L
- CHD1L trapping onto chromatin/nucleosomes (CHD1L; listed as Doxorubicin): does not cause a stable interaction of CHD1L and chromatin
